The values below come from PubChem BioAssay AID652241 (Broad Institute, 2013).

Records with an inconclusive call do not appear. Activity calls are given as the source filed them.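 How the source made its calls: active means fitted curve reaches activity 50 in the expected rising direction at or below the top valid tested dose; inconclusive means no clear call, values can overlap the other calls; inactive means activity in the wrong direction, and the rest.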 Square brackets hold non-standard residues; d marks the D form. Peptide text beside a SMILES is read from it. ξ: configuration not given here. Ac5c = NC1(C(=O)O)CCCC1; ξP = O=C(O)C1CCCN1

The target in the experiment is Virion infectivity factor (Human immunodeficiency virus type 1 group M subtype B (isolate BH10)) + Virion infectivity factor (Human immunodeficiency virus type 1 group M subtype B (isolate BRU/LAI)) + Virion infectivity factor (Human immunodeficiency virus type 1 group M subtype B (isolate PCV12)) + Virion infectivity factor (Human immunodeficiency virus type 1 group M subtype B (isolate HXB2)) (UniProt P69720+P69721+P69722+P69723). Nature of the experiment: Vif multimerization inhibitor potency, dose response, imaging, HEK293T, cherry-picks (AID 652241).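 Further: imaged cell signal that rises when Vif self-association is disrupted.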 To be noted: 24 h.

As to `COc1ccc(-c2cc(C(=O)Nc3cnn(Cc4ccccc4C)c3)no2)cc1OC`, the AC50 (usually the concentration at which the activity in the assay is half-maximal) is 16.3 µM. Still for that read-out and setting: then `COc1cccc(-c2cc(=O)c3cc(NC(=O)c4ccccc4)ccc3[nH]2)c1`, with 5.04 µM; and `Cc1nnc2ccc(-c3cccc(NS(=O)(=O)c4ccccc4Cl)c3)nn12`, with 14.1 µM. Turning to `CCC1(CC)NC(=O)N(CC(=O)Nc2ccc(OCc3ccccc3)cc2)C1=O`, the “activity, higher = inhibition” value (at 19.5 µM (top of the series)) was “inactive”. On the same count and under the same terms, then `Cc1nnc(NC(=O)CSc2nnc(NC(=O)C(C)(C)C)s2)s1`, with “inactive”. Still for that read-out and setting: to `O=C(CCCOc1ccc(Br)cc1)NNC(=O)c1ccncc1` belongs “inactive”; to `CC1CN(S(=O)(=O)c2ccc(C(=O)NCCCn3ccnc3)cc2)CC(C)O1` (centres undefined), “inactive”; to `CCn1c(SCc2nc3ccccc3c(=O)[nH]2)nc2ccccc2c1=O`, “inactive”.

As to `CCOC(=O)N1CCN(c2c(NCc3ccc(Cl)cc3)c(=O)c2=O)CC1`, the AC50 was > 19.5 µM (inactive). As to `Cc1ccc(NC(=O)/C=C/c2ccco2)nc1`, the AC50 was 8.31 µM. The same measure, in the same setting: then `COc1ccc2nc(N3C(=O)C(O)=C(C(=O)c4ccco4)C3c3ccccc3OC)sc2c1` (centres undefined), with > 19.5 µM (inactive); and `COc1ccc(-c2cc(C(F)(F)F)nc(S(C)(=O)=O)n2)cc1OC`, with 8.03 µM. On to `COc1ccc(-c2csc(-c3cccnc3)n2)cc1C`, for which the “activity, higher = inhibition” value (at 19.5 µM (top of the series)) was “inactive”. The same measure, in the same setting: then `NC(=O)c1sc2nc(-c3ccccc3)ccc2c1N`, with “inactive”. As for `CSc1ccc(CN(C)CC(=O)NCCc2ccccc2)cc1`, where the note is “at 19.5 µM (top of the series)”, the “activity, higher = inhibition” value was “inactive”.

Take `CCCCCCOC(=O)C(C#N)c1nc2ccccc2nc1N1CCOCC1` (centres undefined): the “activity, higher = inhibition” value (at 19.5 µM (top of the series)) is “inactive”. The same measure, in the same setting: to `CC(C)C(c1nnnn1CC1CCCO1)N1CCN(C2CCCC2)CC1` (centres undefined) belongs “inactive”.

Take `CCCn1c(=N)c(C(=O)NCc2ccc3c(c2)OCO3)cc2c(=O)n3cccc(C)c3nc21`: the “activity, higher = inhibition” value (at 19.5 µM (top of the series)) is “inactive”.

Take `COc1cccc(NC(=O)NC2(C(F)(F)F)Oc3ccccc3O2)c1`: the AC50 is > 19.5 µM (inactive).

As for `Cc1ccc(-n2nnc3c(=O)n(CC(=O)OCc4ccccc4)cnc32)cc1`, under “at 19.5 µM (top of the series)”, the “activity, higher = inhibition” value was “inactive”. In the case of `O=C(CSc1ncccn1)NC(=O)Nc1ccc2c(c1)OCCO2`, the “activity, higher = inhibition” value (at 19.5 µM (top of the series)) is “inactive”. Take `Cc1ccc2c(c1)C1CN(C)CCC1N2S(=O)(=O)c1cccc(C(F)(F)F)c1` (centres undefined): the “activity, higher = inhibition” value (at 19.5 µM (top of the series)) is “inactive”.

Regarding `COc1cc(Nc2nc3ccccc3n3nnnc23)cc(OC)c1OC`, under “at 6.8 µM (top of the series)”, the “activity, higher = inhibition” value was “inactive”. As for `COc1ccccc1NC(=O)c1ccccc1NC(=O)c1ccccn1`, the “activity, higher = inhibition” value (at 19.5 µM (top of the series)) was “inactive”. On to `Clc1ccc(-n2nnnc2Sc2ncnc3sccc23)cc1`, for which the AC50 is > 6.8 µM (inactive). As for `CCOc1cccc(C(=O)Nc2ccc3oc(Cc4ccc(Cl)cc4)nc3c2)c1`, the “activity, higher = inhibition” value (at 19.5 µM (top of the series)) is “inactive”.

With `Cc1cccc(Nc2nc(-c3ccc(O)c(O)c3)cs2)n1`, the AC50 was > 19.5 µM (inactive). Same read-out and setting: to `CC(=O)Nc1ccc(-c2ccnc3c2CC(C(=O)NCc2ccccc2)O3)cc1` (centres undefined) belongs 1.28 µM. In the case of `COc1ccccc1C(C)NC(=O)Cc1ccsc1` (centres undefined), for the setting “at 19.5 µM (top of the series)”, the “activity, higher = inhibition” value is “inactive”.

In the case of `O=C1Nc2ccccc2S/C1=C/Nc1cccc(Cl)c1`, the “activity, higher = inhibition” value (at 6.8 µM (top of the series)) is “inactive”. Regarding `O=C(COC(=O)c1ccccc1Br)NC1CCCC1`, the “activity, higher = inhibition” value (at 19.5 µM (top of the series)) is “inactive”. Consider `COc1ccc(NC(=O)C2(C)Cc3c(-c4cccc(NC(C)=O)c4)ccnc3O2)cn1` (centres undefined), for which the AC50 is 8.99 µM. Consider `O=C(O)/C=C/C(=O)Nc1cccc(C(F)(F)F)c1`, for which the “activity, higher = inhibition” value (at 19.5 µM (top of the series)) is “inactive”. As to `Cc1nc(C)n(CC(=O)N2CCCC(C(=O)c3ccc(C(F)(F)F)cc3)C2)n1` (centres undefined), the “activity, higher = inhibition” value (at 6.8 µM (top of the series)) is “inactive”.

`COc1ccc(OC)c(/C(O)=C/C(=O)C(=O)Nc2cc(C)ccc2OC)c1`: for the setting “at 19.5 µM (top of the series)”, the “activity, higher = inhibition” value is “inactive”. For `COc1cccc(N2CCN(C(=O)c3ccc(CS(=O)c4ccc(C)cc4)o3)CC2)c1` (centres undefined), the AC50 is 12.9 µM. In the case of `Cc1cc(S(=O)(=O)N2CCOCC2)ccc1OCC(=O)NCCN1CCOCC1`, the “activity, higher = inhibition” value (at 19.5 µM (top of the series)) is “inactive”. Take `O=C(Cn1c(=O)oc2cc(S(=O)(=O)N3CCCCC3)ccc21)N1CCc2ccccc21`: where the note is “at 19.5 µM (top of the series)”, the “activity, higher = inhibition” value was “inactive”. Take `O=C(C1COc2ccccc2O1)N1CCN(Cc2ccc3c(c2)OCO3)CC1` (centres undefined): under “at 19.5 µM (top of the series)”, the “activity, higher = inhibition” value was “inactive”. Still for that read-out and setting: then `O=C(NC1CCCc2ccccc21)c1ccccc1Br` (centres undefined), with “inactive”; and `CCCn1nnc(NC(=O)C(c2ccccc2)c2ccccc2)n1`, with “inactive”; and `COc1ccc(-c2nc(-c3ccccn3)nc(N3CCN(C)CC3)c2C#N)cc1`, with “inactive”.

Regarding `S=C(Nc1ccccc1)N1CCn2c(nc3ccccc32)C1`, under “at 19.5 µM (top of the series)”, the “activity, higher = inhibition” value is “inactive”. Consider `COc1cc(C2c3cc4c(cc3CC3COC(=O)C32)OCO4)cc(OC)c1OC` (centres undefined), for which the half-maximal activity concentration (AC50) is 9.81 µM. Turning to `O=C1S/C(=C/c2ccc(N3CCOCC3)o2)C(=O)N1Cc1c(F)cccc1Cl`, where the note is “at 0.75 µM (top of the series)”, the “activity, higher = inhibition” value was “inactive”. In the case of `COc1ccc(CC(=O)OCC(=O)NCc2ccc(Cl)cc2)cc1`, the “activity, higher = inhibition” value (at 19.5 µM (top of the series)) is “inactive”. Take `O=C(c1cc(-c2ccccc2O)on1)N1CCCCCC1`: the “activity, higher = inhibition” value (at 19.5 µM (top of the series)) is “inactive”. Consider `CN1CCN(C(=S)c2ccc(OCC(=O)Nc3cccc(C(F)(F)F)c3)cc2)CC1`, for which, where the note is “at 19.5 µM (top of the series)”, the “activity, higher = inhibition” value is “inactive”. Turning to `Cc1cccc2cc(CN(CC3CCCO3)C(=O)NC3CCCCC3)c(=O)[nH]c12` (centres undefined), the “activity, higher = inhibition” value (at 19.5 µM (top of the series)) is “inactive”. For the compound `COc1ccc(CN2C3CCC2CC(NC(=O)c2cc(OC)c(OC)c(OC)c2)C3)cc1` (centres undefined), under “at 19.5 µM (top of the series)”, the “activity, higher = inhibition” value was “inactive”. Turning to `COc1cc2c3nnc(-c4ccc(F)cc4)c-3cn(Cc3ccc(F)cc3)c2cc1OC`, where the note is “at 6.8 µM (top of the series)”, the “activity, higher = inhibition” value was “inactive”.

Consider `CC(=O)Nc1ccc(S(=O)(=O)N2c3ccccc3C(C)=CC2(C)C)cc1`, for which the AC50 is > 19.5 µM (inactive). For the compound `Cc1ccc2c(COC(=O)c3ccccc3OC(F)F)cc(=O)oc2c1`, the AC50 is 12 µM.

`CC(O)CN(C)CC/C=C1/c2ccccc2CSc2ccccc21` (centres undefined): the “activity, higher = inhibition” value (at 19.5 µM (top of the series)) was “inactive”. On the same count and under the same terms, then `CCOc1ccc(CC(=O)Nc2sc(Cc3ccccc3)c(C)c2C(N)=O)cc1OCC`, with “inactive”; and `Cc1ccc(NC(=O)Cn2ncn3c(cc4ccccc43)c2=O)c(C)c1`, with “inactive”.

Consider `Cc1nnc2ccc(-c3cccc(NS(=O)(=O)c4cc(F)ccc4F)c3)nn12`, for which the AC50 is 10.7 µM. For `O=c1[nH]c(=O)n(Cc2ccco2)c2c1C(C(F)(F)F)(C(F)(F)F)N=C(c1ccco1)N2`, the “activity, higher = inhibition” value (at 19.5 µM (top of the series)) was “inactive”. On to `CCOC(=O)C1CCCN1C(=O)C1(NC(C)=O)CCCC1` (centres undefined) (Ac-[Ac5c]-[ξP]-OEt), for which, where the note is “at 19.5 µM (top of the series)”, the “activity, higher = inhibition” value was “inactive”. Turning to `COc1cc(-c2cc(=O)c3c(O)c(OC)c(OC)cc3o2)cc(OC)c1O`, the “activity, higher = inhibition” value (at 19.5 µM (top of the series)) was “inactive”. `COc1cccc(-c2cc(NC=O)c3ncc(-c4cc(OC)c(OC)c(OC)c4)n3c2)c1`: the concentration at half-maximal activity (AC50) is 4.25 µM. In the case of `Nc1nc(-c2ccc3ccccc3c2)cs1`, the “activity, higher = inhibition” value (at 19.5 µM (top of the series)) was “inactive”. On to `Nc1c(C(=O)Nc2nc3ccccc3s2)sc2nc(-c3cccs3)ccc12`, for which the half-maximal activity concentration (AC50) was 7.57 µM.

For the compound `NS(=O)(=O)c1ccc(NC(=O)CCC(=O)N2CCOCC2)cc1`, the “activity, higher = inhibition” value (at 19.5 µM (top of the series)) is “inactive”. In the case of `CC(C)OC(=O)c1ccc(NCc2cc(O)ccc2O)cc1Cl`, the AC50 was 5 µM. Take `COCCNCC(=O)Nc1nc(C)cs1`: for the setting “at 19.5 µM (top of the series)”, the “activity, higher = inhibition” value is “inactive”. Turning to `Cc1cc(NC(=O)NC2(C(F)(F)F)Oc3ccc(Cl)cc3O2)no1` (centres undefined), the AC50 was 7.12 µM. For `CCOc1ccc(NC(=O)CN(C)C(=O)c2cc(S(=O)(=O)N3CCCCC3)ccc2Cl)cc1OCC`, the “activity, higher = inhibition” value (at 19.5 µM (top of the series)) was “inactive”.

With `O=C(CCCn1c(=S)[nH]c2ccccc2c1=O)N1CCN(c2cccc(Cl)c2)CC1`, the “activity, higher = inhibition” value (at 19.5 µM (top of the series)) is “inactive”. Regarding `C[C@@H]1CN([C@H](C)CO)C(=O)CCCn2cc(nn2)CO[C@H]1CN(C)C(=O)c1ccccc1`, under “at 19.5 µM (top of the series)”, the “activity, higher = inhibition” value is “inactive”. In the case of `FC(F)(F)c1nnc2c3ccccc3c(Cl)nn12`, the AC50 is 12.5 µM. Regarding `CN(Cc1ccccc1)C(=O)CCC1CCN(C(=O)c2ccco2)CC1`, the “activity, higher = inhibition” value (at 19.5 µM (top of the series)) is “inactive”. The same measure, in the same setting: to `CCCOCCOC(=O)c1[nH]c2c(c1C)C(=O)CC(c1cc(OC)ccc1OC)C2` (centres undefined) belongs “inactive”; to `Cc1ccc(Nc2nc(N)nc(CSc3nnc(-c4ccncc4)o3)n2)cc1`, “inactive”; to `COc1cc2[nH]c(=O)n(CCCC(=O)NC3CCCCC3)c(=O)c2cc1OC`, “inactive”. For `CCc1ccc(N2C(=O)/C(=C/c3cccs3)N(CC(=O)OC)C2=S)cc1`, the half-maximal activity concentration (AC50) was 18.8 µM. For `Cc1ccc(S(=O)(=O)NC(=O)Nn2c(C)nnc2C)cc1`, the “activity, higher = inhibition” value (at 19.5 µM (top of the series)) was “inactive”. Consider `Cc1cccc2cc(COC(=O)c3ccco3)c(=O)[nH]c12`, for which, where the note is “at 19.5 µM (top of the series)”, the “activity, higher = inhibition” value is “inactive”. The same measure, in the same setting: then `CC(C)(C)NC(=O)NC(=O)COc1ccccn1`, with “inactive”.

As for `COc1ccc2c(CC(=O)Nc3ccccc3OC)coc2c1`, the “activity, higher = inhibition” value (at 19.5 µM (top of the series)) was “inactive”. Turning to `CCOc1ccc(S(=O)(=O)NCc2ccccn2)cc1NC(=O)c1ccccc1`, the “activity, higher = inhibition” value (at 19.5 µM (top of the series)) is “inactive”. For `COc1ccc(-n2nc(C(=O)NCC(=O)Nc3cccc(Cl)c3)c3ccccc3c2=O)cc1OC`, the concentration at half-maximal activity (AC50) is 8.05 µM.

For `CN(C)c1ccc(C(O)Cc2nc3ccccc3n2C)cc1` (centres undefined), the “activity, higher = inhibition” value (at 19.5 µM (top of the series)) was “inactive”. Turning to `Cc1nc(NC(=O)C(C)Oc2cccc(Cl)c2)sc1C(=O)N(C)C` (centres undefined), the “activity, higher = inhibition” value (at 2.1 µM (top of the series)) is “inactive”.
